From PubChem BioAssay AID330 (DTP/NCI, 2004)
Values joined by “and” are separate entries in the source; they are usually repeats but may differ in a detail not shown here. Equal entries are not always repeated. Inconclusive results and toxic doses are left out. Rule for the calls: active = survival T/C of 150% or more; inactive = T/C below 125% in these data.

Test system: P388 leukemia ip, CD2F1 mice, survival T/C
Assay: NCI In Vivo Anticancer Drug Screen. Data for tumor model P388 Leukemia (intraperitoneal) in CD2F1 (CDF1) mice
Conditions: endpoint: median survival time, higher = longer survival
Summary of the method: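 Mice carrying the transplanted tumor received test compound or vehicle. Survival was recorded in each group, and the value is the treated-group measurement divided by that of the vehicle-treated control group.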

[1] = dose: 50.0 mg/kg/injection, schedule: Q01DX009 (ip), vehicle: saline
[2] = dose: 100.0 mg/kg/injection, schedule: Q01DX009 (ip), vehicle: saline
[3] = dose: 50.0 mg/kg/injection, schedule: Q01DX009 (ip), vehicle: saline with Tween-80
[4] = dose: 50.0 mg/kg/injection, schedule: Q04DX003 (ip), vehicle: saline with Tween-80
[5] = dose: 100.0 mg/kg/injection, schedule: Q01DX009 (ip), vehicle: saline with Tween-80
[6] = dose: 100.0 mg/kg/injection, schedule: Q04DX003 (ip), vehicle: saline with Tween-80
[7] = dose: 200.0 mg/kg/injection, schedule: Q01DX009 (ip), vehicle: saline with Tween-80
[8] = dose: 200.0 mg/kg/injection, schedule: Q04DX003 (ip), vehicle: saline with Tween-80
[9] = dose: 50.0 mg/kg/injection, schedule: Q01DX005 (ip), vehicle: saline with Tween-80
[10] = dose: 100.0 mg/kg/injection, schedule: Q01DX005 (ip), vehicle: saline with Tween-80
[11] = dose: 200.0 mg/kg/injection, schedule: Q01DX005 (ip), vehicle: saline with Tween-80
[12] = dose: 25.0 mg/kg/injection, schedule: Q01DX009 (ip), vehicle: saline with Tween-80

Measured: T/C

O=S1(=O)CCN(Cc2ccncc2)CC1
inactive: [1] 100 % of control | [2] 98 % of control | dose: 200.0 mg/kg/injection, schedule: Q01DX009 (ip), vehicle: saline 100 % of control

CC1(C)COC(Cc2ccccc2)=N1
inactive: [3] 100 % of control | [4] 100 % of control | [5] 104 % of control | [6] 95 % of control | [7] 100 % of control | [8] 100 % of control

CCCCCCC(=O)CC(SCC(NC(C)=O)C(=O)O)c1ccccc1Cl (centres undefined)
inactive: dose: 60.0 mg/kg/injection, schedule: Q01DX005 (ip), vehicle: saline 101 % of control | dose: 120.0 mg/kg/injection, schedule: Q01DX005 (ip), vehicle: saline 93 % of control

NC(=Nc1ccc(S(=O)(=O)Nc2cnc3ccccc3n2)cc1)/N=C(/N)Nc1ccc(Br)cc1
inactive: [9] 99 % of control | [10] 100 % of control | [11] 99 % of control

N#CC(=O)Nc1cccc(Cl)c1
inactive: dose: 15.0 mg/kg/injection, schedule: Q01DX005 (ip), vehicle: saline with Tween-80 107 % of control | dose: 30.0 mg/kg/injection, schedule: Q01DX005 (ip), vehicle: saline with Tween-80 103 % of control

O=C(Nc1ccccc1)ON=C1CCCCC1
inactive: dose: 60.0 mg/kg/injection, schedule: Q01DX005 (ip), vehicle: saline with Tween-80 101 % of control | dose: 120.0 mg/kg/injection, schedule: Q01DX005 (ip), vehicle: saline with Tween-80 96 % of control | dose: 240.0 mg/kg/injection, schedule: Q01DX005 (ip), vehicle: saline with Tween-80 99 % of control

O=[N+]([O-])c1ccc(Sc2ccc([N+](=O)[O-])cc2)cc1
inactive: [4] 90 % of control | dose: 66.0 mg/kg/injection, schedule: Q04DX003 (ip), vehicle: saline with Tween-80 90 % of control | [6] 100 % of control and 95 % of control | dose: 150.0 mg/kg/injection, schedule: Q04DX003 (ip), vehicle: saline with Tween-80 90 % of control | [8] 90 % of control

CC(CN(C)C)C(=O)c1ccccc1 (centres undefined)
inactive: dose: 6.25 mg/kg/injection, schedule: Q01DX009 (ip), vehicle: saline with Tween-80 113 % of control | dose: 12.5 mg/kg/injection, schedule: Q01DX009 (ip), vehicle: saline with Tween-80 112 % of control | [12] 120 % of control | [3] 114 % of control | [1] 99 % of control | [5] 117 % of control | [2] 99 % of control

O=C1C=C(c2ccccc2)S(=O)(=O)c2c(O)cccc21
inactive: [9] 121 % of control | [10] 119 % of control | [11] 118 % of control

COC(=O)C(CSCSCc1ccccc1)NC(=O)C(CSCc1ccccc1)NC(=O)CCNC(=O)OCc1ccccc1 (centres undefined)
inactive: dose: 3.12 mg/kg/injection, schedule: Q04DX003 (ip), vehicle: saline 114 % of control | dose: 6.25 mg/kg/injection, schedule: Q04DX003 (ip), vehicle: saline 100 % of control | dose: 12.5 mg/kg/injection, schedule: Q04DX003 (ip), vehicle: saline 98 % of control | dose: 25.0 mg/kg/injection, schedule: Q04DX003 (ip), vehicle: saline 112 % of control

O=C(O)c1ccnc(C(=O)O)c1
inactive: dose: 100.0 mg/kg/injection, schedule: Q01DX001 (ip), vehicle: saline with Tween-80 100 % of control | dose: 200.0 mg/kg/injection, schedule: Q01DX001 (ip), vehicle: saline with Tween-80 90 % of control

COc1ccc2c(C)c3[n+](cc2c1OC)CCc1cc2c(cc1-3)OCO2
inactive: dose: 0.4 mg/kg/injection, schedule: Q01DX005 (ip), vehicle: saline 95 % of control | dose: 0.78 mg/kg/injection, schedule: Q04DX003 (ip), vehicle: water 102 % of control | dose: 0.8 mg/kg/injection, schedule: Q01DX005 (ip), vehicle: saline 101 % of control | dose: 1.56 mg/kg/injection, schedule: Q04DX003 (ip), vehicle: water 103 % of control | dose: 1.6 mg/kg/injection, schedule: Q01DX005 (ip), vehicle: saline 107 % of control | dose: 3.13 mg/kg/injection, schedule: Q04DX003 (ip), vehicle: water 106 % of control | dose: 6.25 mg/kg/injection, schedule: Q04DX003 (ip), vehicle: water 97 % of control | dose: 12.5 mg/kg/injection, schedule: Q04DX003 (ip), vehicle: water 97 % of control

c1ccc2c(c1)ncn2Sn1cnc2ccccc21
inactive: dose: 17.5 mg/kg/injection, schedule: Q01DX005 (ip), vehicle: Klucel (hydroxypropylcellulose) (HPC) 102 % of control | dose: 35.0 mg/kg/injection, schedule: Q01DX005 (ip), vehicle: Klucel (hydroxypropylcellulose) (HPC) 118 % of control | dose: 70.0 mg/kg/injection, schedule: Q01DX005 (ip), vehicle: Klucel (hydroxypropylcellulose) (HPC) 104 % of control

COC1(OC)C(C)C(C#N)(C#N)C1(OC)OC (centres undefined)
inactive: dose: 60.0 mg/kg/injection, schedule: Q01DX005 (ip), vehicle: Klucel (hydroxypropylcellulose) (HPC) 100 % of control | dose: 120.0 mg/kg/injection, schedule: Q01DX005 (ip), vehicle: Klucel (hydroxypropylcellulose) (HPC) 106 % of control

Cn1c(=O)c2nc3c(=O)n(C)c(=O)n(C)c3nc2n(C)c1=O
inactive: dose: 6.25 mg/kg/injection, schedule: Q01DX009 (ip), vehicle: Klucel (hydroxypropylcellulose) (HPC) 100 % of control and 102 % of control and 118 % of control | dose: 12.5 mg/kg/injection, schedule: Q01DX009 (ip), vehicle: Klucel (hydroxypropylcellulose) (HPC) 101 % of control and 103 % of control and 116 % of control | dose: 25.0 mg/kg/injection, schedule: Q01DX009 (ip), vehicle: Klucel (hydroxypropylcellulose) (HPC) 104 % of control and 120 % of control | dose: 50.0 mg/kg/injection, schedule: Q01DX009 (ip), vehicle: Klucel (hydroxypropylcellulose) (HPC) 111 % of control

COC(=O)C[C@H]1[C@]2(C)C[C@@]34OC5(C)O[C@]6([C@@H]7CC(=O)OC(c8ccoc8)[C@]7(C)[C@@H](OC(C)=O)C[C@]6(O5)[C@@]13C)[C@H](OC(=O)C(C)C)[C@]4(O)[C@H]2OC(=O)C(C)C (some centres undefined)
inactive: dose: 0.37 mg/kg/injection, schedule: Q01DX009 (ip), vehicle: Klucel (hydroxypropylcellulose) (HPC) 95 % of control | dose: 0.75 mg/kg/injection, schedule: Q01DX009 (ip), vehicle: Klucel (hydroxypropylcellulose) (HPC) 94 % of control | dose: 1.5 mg/kg/injection, schedule: Q01DX009 (ip), vehicle: Klucel (hydroxypropylcellulose) (HPC) 98 % of control | dose: 3.0 mg/kg/injection, schedule: Q01DX009 (ip), vehicle: Klucel (hydroxypropylcellulose) (HPC) 93 % of control

Cc1ncc([N+](=O)[O-])n1CCOc1c(Cl)cc(Cl)cc1CN(C)C1CCCCC1
inactive: dose: 3.12 mg/kg/injection, schedule: Q01DX005 (ip), vehicle: Klucel (hydroxypropylcellulose) (HPC) 100 % of control | dose: 6.25 mg/kg/injection, schedule: Q01DX005 (ip), vehicle: Klucel (hydroxypropylcellulose) (HPC) 98 % of control | dose: 12.5 mg/kg/injection, schedule: Q01DX005 (ip), vehicle: Klucel (hydroxypropylcellulose) (HPC) 105 % of control

CC(C)=CCC/C(C)=C/COC(=O)C=[N+]=[N-]
inactive: [3] 114 % of control and 91 % of control | [5] 122 % of control | [7] 117 % of control and 122 % of control | dose: 400.0 mg/kg/injection, schedule: Q01DX009 (ip), vehicle: saline with Tween-80 95 % of control

COc1ccccc1-n1c(SC)nccc1=O
inactive: dose: 100.0 mg/kg/injection, schedule: Q04DX002 (ip), vehicle: Klucel (hydroxypropylcellulose) (HPC) 100 % of control | dose: 200.0 mg/kg/injection, schedule: Q04DX002 (ip), vehicle: Klucel (hydroxypropylcellulose) (HPC) 100 % of control | dose: 400.0 mg/kg/injection, schedule: Q04DX002 (ip), vehicle: Klucel (hydroxypropylcellulose) (HPC) 94 % of control

CC(C)(C)N(O)c1cccc(P(=O)(c2ccccc2)c2ccccc2)c1
inactive: [12] 108 % of control | [3] 94 % of control | [5] 92 % of control
